# Experimental data reported in PubChem BioAssay (NCI).
# Values joined by “and” are separate entries in the source; they are usually repeats but may differ in a detail not shown here. Identical values can stand only once.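 Values below derive from 48-hour exposures of cells grown in 96-well plates, with endpoints linearly interpolated between the two concentrations bracketing the appropriate inhibition level. GI50: concentration for 50% inhibition of growth. Definition used: TGI = concentration required for complete inhibition of growth.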
# Columns and labels:
# Experiment in all cases: inhibition of tumour cell growth, NCI panel, 48 h
# [1] = tested on: 786-0 renal
# [2] = tested on: MDA-MB-231 breast
# [3] = tested on: NCI-H226 lung
# [4] = tested on: NCI-H23 lung
# [5] = tested on: RPMI-8226 leukemia
# [6] = tested on: SF-268 CNS
# [7] = tested on: SF-295 CNS
# [8] = tested on: SR leukemia
# [9] = tested on: UACC-257 melanoma
# [10] = tested on: UACC-62 melanoma
SMILES,TGI [1],TGI [2],TGI [3],TGI [4],TGI [5],TGI [6],TGI [7],TGI [8],TGI [9],TGI [10],GI50 [1],GI50 [2],GI50 [3],GI50 [4],GI50 [5],GI50 [6],GI50 [7],GI50 [8],GI50 [9],GI50 [10]
CCOC1=C/C(=N\Nc2ccc([N+](=O)[O-])cc2)CCC1,> 100 µM,84.6 µM,> 100 µM,94.1 µM,> 100 µM,44.9 µM,> 100 µM,> 100 µM,> 100 µM,67.4 µM,–,–,–,–,–,–,–,–,–,–
COc1ccc(-c2cn3ccnc3c(-c3ccc(Cl)cc3)n2)cc1,> 100 µM,55.9 µM,> 100 µM,40.3 µM,91.3 µM,64.8 µM,85.3 µM,> 100 µM,48 µM,> 100 µM,11.7 µM,4.13 µM,42.8 µM,4.71 µM,4.58 µM,10.6 µM,23.1 µM,1.71 µM,6.81 µM,19.4 µM
CC(C)(O)c1cc(Nc2cc(Oc3cn(C4CC4)nc3C3CCOCC3)ccn2)ccn1,> 100 µM,> 100 µM,> 100 µM,> 100 µM,> 100 µM,> 100 µM,> 100 µM,> 100 µM,> 100 µM,–,53.1 µM,65 µM,> 100 µM,34.8 µM,33.7 µM,> 100 µM,64.3 µM,> 100 µM,85.1 µM,–
CC(C)C(Br)C(=O)NCC(=O)O (stereo not given),> 100 µM,> 100 µM,> 100 µM,> 100 µM,> 100 µM,> 100 µM,> 100 µM,> 100 µM,> 100 µM,> 100 µM,–,–,–,–,–,–,–,–,–,–
CCCCC[C@H]1C/C=C2/C(=O)C=C[C@@H]2C/C=C\CCCC(=O)O1,0.489 µM,6.39 µM,0.18 µM,0.713 µM,0.366 µM,5.94 µM,0.298 µM,50 µM,0.346 µM,–,0.164 µM,0.212 µM,0.0904 µM,0.16 µM,0.117 µM,0.19 µM,0.123 µM,0.124 µM,0.105 µM,–
OC(Cc1cccc2ccccc12)CN1CCC(c2ccccc2)CC1 (stereo not given),28.3 µM,28.4 µM,–,30.8 µM,31.8 µM,28.2 µM,27.9 µM,27.4 µM,18.8 µM,28.9 µM,–,–,–,–,–,–,–,–,–,–
CN1C2C=CC(=O)C1C(C#N)C2 (stereo not given),35.5 µM and > 100 µM,> 100 µM,> 100 µM,87.9 µM and > 100 µM,–,> 100 µM,> 100 µM,81 µM and > 100 µM,–,> 100 µM,16.3 µM and 51.7 µM,> 100 µM,97.7 µM,–,–,–,–,22.7 µM and 61.6 µM,–,–
Cc1cc(C)nc(NC(=O)COc2ccc(Cl)cc2)c1,> 100 µM,> 100 µM,> 100 µM,> 100 µM,> 100 µM,> 100 µM,> 100 µM,> 100 µM,> 100 µM,> 100 µM,–,–,–,–,–,–,–,–,–,–
COC(=O)c1c(C(=O)O)c(-c2ccccc2)c(-c2ccccc2)c(-c2ccccc2)c1-c1ccccc1,> 100 µM,> 100 µM,> 100 µM,> 100 µM,> 100 µM,> 100 µM,> 100 µM,–,> 100 µM,> 100 µM,> 100 µM,> 100 µM,> 100 µM,> 100 µM,88.8 µM,> 100 µM,> 100 µM,–,> 100 µM,> 100 µM
